Series [1] concerns the target T1, Alpha-2A adrenergic receptor (Homo sapiens, UniProt P08913). Further: in other assays of this panel Not Active means under 50% inhibition at 10 µM.
T1 sequence (P08913 whole entry): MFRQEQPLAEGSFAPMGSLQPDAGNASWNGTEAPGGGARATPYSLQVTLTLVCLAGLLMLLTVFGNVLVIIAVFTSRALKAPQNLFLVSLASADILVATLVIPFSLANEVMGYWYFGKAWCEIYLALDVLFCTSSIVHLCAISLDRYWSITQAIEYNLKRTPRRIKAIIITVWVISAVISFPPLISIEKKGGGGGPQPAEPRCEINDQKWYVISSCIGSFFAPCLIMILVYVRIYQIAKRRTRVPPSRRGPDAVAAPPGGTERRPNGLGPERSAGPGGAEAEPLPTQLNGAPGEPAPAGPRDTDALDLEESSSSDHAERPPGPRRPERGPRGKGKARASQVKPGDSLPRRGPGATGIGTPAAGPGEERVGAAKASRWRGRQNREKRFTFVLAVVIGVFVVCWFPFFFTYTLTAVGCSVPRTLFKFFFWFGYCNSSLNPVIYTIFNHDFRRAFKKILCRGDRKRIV
The format is cell membranes, Sf9, Membrane. The note with it: sf9.

The next series addresses T2, Cathepsin G (Homo sapiens, UniProt P08311).
T2 sequence (P08311 whole entry): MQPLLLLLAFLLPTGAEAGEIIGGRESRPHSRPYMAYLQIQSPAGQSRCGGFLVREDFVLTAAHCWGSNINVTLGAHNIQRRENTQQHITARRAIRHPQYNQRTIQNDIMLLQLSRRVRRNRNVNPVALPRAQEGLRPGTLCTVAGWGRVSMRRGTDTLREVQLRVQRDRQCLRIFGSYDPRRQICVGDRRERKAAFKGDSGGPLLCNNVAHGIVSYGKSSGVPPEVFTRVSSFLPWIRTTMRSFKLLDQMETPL
The format is tissue-based. The note with it: neutrophil.

In the next series the target is Cytochrome P450 3A4 (Homo sapiens, UniProt P08684). The settings on record: bti-tn-5b1-4. Further: in other assays of this panel Not Active means under 50% inhibition at 10 µM.
Series [2] addresses Sigma non-opioid intracellular receptor 1 (Homo sapiens, UniProt Q99720). Description: DRUGMATRIX: Sigma1 radioligand binding (ligand: [3H] Haloperidol). The format is cell membranes, Jurkat, Membrane. The note with it: Not Active = under 50% inhibition at 10 µM.
The target of another series is Melanocortin receptor 3 (Homo sapiens, UniProt P41968). The format is cell membranes, Membrane. The note with it: hek293. Further: in other assays of this panel Not Active means under 50% inhibition at 10 µM.
Series [3] has as its target 5-hydroxytryptamine receptor 4 (Cavia porcellus, UniProt O70528). The format is cell membranes, Dunkin-Hartley, Striatum, Membrane. Further: in other assays of this panel Not Active means under 50% inhibition at 10 µM.

By IC50 is commonly meant the midpoint of a concentration-inhibition curve. Broadly, the Ki is a measure of affinity in units of concentration, obtained from inhibition or displacement.

Cytochrome P450 3A4, sequence (P08684 whole entry): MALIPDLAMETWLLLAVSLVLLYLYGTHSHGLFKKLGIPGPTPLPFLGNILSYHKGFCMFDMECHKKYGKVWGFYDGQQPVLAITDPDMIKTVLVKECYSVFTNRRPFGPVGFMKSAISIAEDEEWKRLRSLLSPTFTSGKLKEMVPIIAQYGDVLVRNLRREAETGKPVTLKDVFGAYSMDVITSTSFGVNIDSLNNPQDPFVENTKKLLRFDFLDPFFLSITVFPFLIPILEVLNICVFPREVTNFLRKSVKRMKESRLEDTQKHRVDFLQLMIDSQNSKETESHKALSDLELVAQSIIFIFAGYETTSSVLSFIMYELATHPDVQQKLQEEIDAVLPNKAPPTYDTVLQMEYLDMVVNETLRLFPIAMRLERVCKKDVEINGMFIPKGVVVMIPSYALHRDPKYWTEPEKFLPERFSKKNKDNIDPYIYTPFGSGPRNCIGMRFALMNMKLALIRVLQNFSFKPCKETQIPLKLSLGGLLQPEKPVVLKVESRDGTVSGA
Sigma non-opioid intracellular receptor 1, sequence (Q99720 whole entry): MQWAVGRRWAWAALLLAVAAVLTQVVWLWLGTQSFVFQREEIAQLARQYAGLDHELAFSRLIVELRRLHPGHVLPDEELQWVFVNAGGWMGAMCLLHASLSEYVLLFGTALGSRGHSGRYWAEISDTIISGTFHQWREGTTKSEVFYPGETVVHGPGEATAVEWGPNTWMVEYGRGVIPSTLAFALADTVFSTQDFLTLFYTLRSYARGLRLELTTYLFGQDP
5-hydroxytryptamine receptor 4, sequence (O70528 whole entry): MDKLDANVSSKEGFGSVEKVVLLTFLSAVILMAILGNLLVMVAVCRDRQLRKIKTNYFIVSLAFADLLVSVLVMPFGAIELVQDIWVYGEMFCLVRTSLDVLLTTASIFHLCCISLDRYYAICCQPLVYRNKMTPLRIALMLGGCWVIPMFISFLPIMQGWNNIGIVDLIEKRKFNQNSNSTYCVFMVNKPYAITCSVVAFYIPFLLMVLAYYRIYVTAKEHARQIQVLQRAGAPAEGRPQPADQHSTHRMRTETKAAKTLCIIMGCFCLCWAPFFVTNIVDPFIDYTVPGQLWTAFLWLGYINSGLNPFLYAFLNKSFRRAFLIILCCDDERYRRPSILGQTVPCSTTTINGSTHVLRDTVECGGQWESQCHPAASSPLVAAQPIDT
Melanocortin receptor 3, sequence (P41968 whole entry): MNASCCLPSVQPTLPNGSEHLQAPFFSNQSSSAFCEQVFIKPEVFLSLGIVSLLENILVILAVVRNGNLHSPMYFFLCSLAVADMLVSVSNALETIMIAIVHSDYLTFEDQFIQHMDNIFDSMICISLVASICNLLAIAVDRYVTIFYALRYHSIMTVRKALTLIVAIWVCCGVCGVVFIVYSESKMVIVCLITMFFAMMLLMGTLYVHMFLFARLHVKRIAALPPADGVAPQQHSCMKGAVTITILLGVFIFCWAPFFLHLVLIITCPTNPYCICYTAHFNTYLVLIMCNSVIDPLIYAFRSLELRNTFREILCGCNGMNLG

For `Cc1c(N(C)CS(=O)(=O)[O-])c(=O)n(-c2ccccc2)n1C.[Na+]` [DIPYRONE SODIUM], the IC50 result (in series [1]; at Cathepsin G; on Cytochrome P450 3A4; in series [2] (jurkat); at Melanocortin receptor 3; in series [3]) was “Not Active” each time. The Ki result at Cytochrome P450 3A4 is “Not Active”.

For `CC(CCc1ccc(O)cc1)NCCc1ccc(O)c(O)c1` (stereo not drawn) [DOBUTAMINE], the half-maximal inhibitory concentration (IC50) entry in series [1] is “Not Active”; against Cathepsin G, “Not Active”; against Cytochrome P450 3A4, “Not Active”; in series [2] (read-out: IC50) it was 2520 nM; at Melanocortin receptor 3, “Not Active”; in series [3], “Not Active”. The results for the Ki result (on Cytochrome P450 3A4; in series [2] (read-out: Ki)) were “Not Active” and 1060 nM, respectively.

`CCn1cc(C(=O)O)c(=O)c2cc(F)c(N3CCNCC3)nc21` [ENOXACIN]: the IC50 entry (in series [1]; at Cathepsin G; at Cytochrome P450 3A4; in series [2] (jurkat); against Melanocortin receptor 3; in series [3]) was “Not Active” in each case. Also, at Cytochrome P450 3A4, the Ki result was “Not Active”.

Take `CCC(=O)O[C@H]1[C@H](O[C@@H]2[C@@H](C)[C@H](O[C@H]3C[C@@](C)(OC)[C@@H](O)[C@H](C)O3)[C@@H](C)C(=O)O[C@H](CC)[C@@](C)(O)[C@H](O)[C@@H](C)C(=O)[C@H](C)C[C@@]2(C)O)O[C@H](C)C[C@@H]1N(C)C` [ERYTHROMYCIN PROPIONATE]: the IC50 result (in series [1]; against Cathepsin G; against Cytochrome P450 3A4; in series [2] (jurkat); against Melanocortin receptor 3; in series [3]) was “Not Active” in each case. In addition, the Ki result at Cytochrome P450 3A4 is “Not Active”.

As for `C=C(CC)C(=O)c1ccc(OCC(=O)O)c(Cl)c1Cl` [ETHACRYNIC ACID], the IC50 entry (in series [1]; at Cathepsin G; on Cytochrome P450 3A4; in series [2] (jurkat); on Melanocortin receptor 3; in series [3]) was “Not Active” throughout. For the same molecule, the Ki result on Cytochrome P450 3A4 is “Not Active”.

With `C#C[C@]1(O)CC[C@H]2[C@@H]3CCc4cc(O)ccc4[C@H]3CC[C@@]21C` [ETHINYL ESTRADIOL], the IC50 result was “Not Active” in series [1]; “Not Active” against Cathepsin G; “Not Active” against Cytochrome P450 3A4; “Not Active” in series [2] (jurkat); “Not Active” against Melanocortin receptor 3; 7950 nM in series [3] (read-out: IC50). Also, the Ki entry was “Not Active” at Cytochrome P450 3A4 and 1330 nM in series [3] (read-out: Ki).

`OCCO` [ETHYLENE GLYCOL]: the IC50 entry (in series [1]; at Cathepsin G; at Cytochrome P450 3A4; in series [2] (jurkat); against Melanocortin receptor 3; in series [3]) was “Not Active” throughout. The Ki result on Cytochrome P450 3A4 is given as “Not Active”.

With `CC(=O)OCC(CCn1cnc2cnc(N)nc21)COC(C)=O` [FAMCICLOVIR], the IC50 result (in series [1]; at Cathepsin G; on Cytochrome P450 3A4; in series [2] (jurkat); at Melanocortin receptor 3; in series [3]) was “Not Active” each time. Moreover, at Cytochrome P450 3A4, the Ki result was “Not Active”.

As to `O=C(O)Cc1ccc(-c2ccccc2)cc1` [FELBINAC], the IC50 result (in series [1]; against Cathepsin G; on Cytochrome P450 3A4; in series [2] (jurkat); against Melanocortin receptor 3; in series [3]) was “Not Active” in each case. Also, the inhibition constant (Ki) result on Cytochrome P450 3A4 was “Not Active”.

As to `CC(C(=O)O)c1ccc(-c2ccccc2)c(F)c1` (stereo not drawn) [FLURBIPROFEN], the IC50 entry (in series [1]; against Cathepsin G; against Cytochrome P450 3A4; in series [2] (jurkat); at Melanocortin receptor 3; in series [3]) was “Not Active” each time. At Cytochrome P450 3A4, the Ki result is “Not Active”.

As for `NC[C@@H]1O[C@H](O[C@H]2[C@@H](O)[C@H](O[C@@H]3[C@@H](O)[C@H](N)C[C@H](N)[C@H]3O[C@H]3O[C@H](CN)[C@@H](O)[C@H](O)[C@H]3N)O[C@@H]2CO)[C@H](N)[C@@H](O)[C@@H]1O` [FRAMYCETIN], the IC50 entry (in series [1]; against Cathepsin G; on Cytochrome P450 3A4; in series [2] (jurkat); against Melanocortin receptor 3; in series [3]) was “Not Active” in each case. Further, the Ki result at Cytochrome P450 3A4 is listed as “Not Active”.

On to `C[C@H]([C@](O)(Cn1cncn1)c1ccc(F)cc1F)S(C)(=O)=O` [GENACONAZOLE], for which the 50% inhibitory concentration (IC50) entry (in series [1]; on Cathepsin G; against Cytochrome P450 3A4; in series [2] (jurkat); against Melanocortin receptor 3; in series [3]) was “Not Active” in each case. The Ki entry on Cytochrome P450 3A4 is listed as “Not Active”.

For the molecule `Cc1c(F)c(N2CCNC(C)C2)cc2c1c(=O)c(C(=O)O)cn2C1CC1` (stereo not drawn) [GREPAFLOXACIN], the half-inhibitory concentration (IC50) result (in series [1]; against Cathepsin G; against Cytochrome P450 3A4; in series [2] (jurkat); against Melanocortin receptor 3; in series [3]) was “Not Active” throughout. Further, the Ki entry at Cytochrome P450 3A4 is “Not Active”.

On to `C[C@]12CCC(=O)C=C1CC[C@@H]1[C@@H]2[C@@H](O)C[C@@]2(C)[C@H]1CC[C@]2(O)C(=O)CO` [HYDROCORTISONE], for which the IC50 entry (in series [1]; against Cathepsin G; against Cytochrome P450 3A4; in series [2] (jurkat); at Melanocortin receptor 3; in series [3]) was “Not Active” throughout. Besides, on Cytochrome P450 3A4, the Ki result was “Not Active”.

For the molecule `NC[C@H]1O[C@H](O[C@H]2[C@H](O)[C@@H](O[C@H]3O[C@H](CO)[C@@H](O)[C@H](N)[C@H]3O)[C@H](N)C[C@@H]2N)[C@H](O)[C@@H](O)[C@@H]1O` [KANAMYCIN], the IC50 result (in series [1]; against Cathepsin G; against Cytochrome P450 3A4; in series [2] (jurkat); at Melanocortin receptor 3; in series [3]) was “Not Active” throughout. Besides, the Ki result at Cytochrome P450 3A4 was “Not Active”.

`CC(C(=O)O)c1ccc(CC2CCCC2=O)cc1` (stereo not drawn) [LOXOPROFEN]: the IC50 result (in series [1]; on Cathepsin G; at Cytochrome P450 3A4; in series [2] (jurkat); at Melanocortin receptor 3; in series [3]) was “Not Active” throughout. Besides, the Ki entry at Cytochrome P450 3A4 was “Not Active”.

Turning to `Cc1cccc(Nc2ccccc2C(=O)O)c1C` [MEFENAMIC ACID], the IC50 entry (in series [1]; at Cathepsin G; against Cytochrome P450 3A4; in series [2] (jurkat); on Melanocortin receptor 3; in series [3]) was “Not Active” throughout. Also, the Ki result at Cytochrome P450 3A4 is reported as “Not Active”.

Take `CC(=O)O[C@]1(C(C)=O)CC[C@H]2[C@@H]3C=C(C)C4=CC(=O)CC[C@]4(C)[C@H]3CC[C@@]21C` [MEGESTROL ACETATE]: the IC50 result (in series [1]; against Cathepsin G; on Cytochrome P450 3A4; in series [2] (jurkat); against Melanocortin receptor 3; in series [3]) was “Not Active” throughout. The inhibition constant Ki result at Cytochrome P450 3A4 is reported as “Not Active”.

On to `COc1ccccc1OCC(O)COC(N)=O` (stereo not drawn) [METHOCARBAMOL], for which the IC50 result (in series [1]; against Cathepsin G; on Cytochrome P450 3A4; in series [2] (jurkat); on Melanocortin receptor 3; in series [3]) was “Not Active” each time. The Ki result on Cytochrome P450 3A4 is reported as “Not Active”.

On to `CN(Cc1cnc2nc(N)nc(N)c2n1)c1ccc(C(=O)N[C@@H](CCC(=O)O)C(=O)O)cc1` [METHOTREXATE], for which the IC50 result (in series [1]; on Cathepsin G; at Cytochrome P450 3A4; in series [2] (jurkat); at Melanocortin receptor 3; in series [3]) was “Not Active” each time. Further, at Cytochrome P450 3A4, the Ki result is “Not Active”.

Take `COC(=O)c1ccccc1O` [METHYL SALICYLATE]: the IC50 result (in series [1]; at Cathepsin G; against Cytochrome P450 3A4; in series [2] (jurkat); on Melanocortin receptor 3; in series [3]) was “Not Active” throughout. At Cytochrome P450 3A4, the inhibitory constant (Ki) result is “Not Active”.

For `COc1ccc2cc(CCC(C)=O)ccc2c1` [NABUMETONE], the half-maximal inhibitory concentration (IC50) result (in series [1]; against Cathepsin G; on Cytochrome P450 3A4; in series [2] (jurkat); against Melanocortin receptor 3; in series [3]) was “Not Active” each time. For the same molecule, the Ki result on Cytochrome P450 3A4 was “Not Active”.

Consider `O=C(O)c1cccnc1` [NIACIN], for which the IC50 result (in series [1]; against Cathepsin G; at Cytochrome P450 3A4; in series [2] (jurkat); at Melanocortin receptor 3; in series [3]) was “Not Active” each time. For the same molecule, on Cytochrome P450 3A4, the Ki result is reported as “Not Active”.
